Patent publication US6114349A, “Substituted quinoline derivatives with antiviral action” (Hoechst Aktiengesellschaft, priority 1996, dated 2000)
≈ marks a conversion by molar mass, not a printed value.

Tests used:
[1] = tested on: HIV; assay: Testing of preparations against HIV in cell culture (giant cell formation in HIV-infected lymphocytes); assay type: cell-based; conditions: 3 days, 37° C.; for MIC: Human immunodeficiency virus 1, 72 h, lowest concentration at which no giant cells occurred; for EC50: Human immunodeficiency virus 1, Lymphocyte, 72 h
Experimental: Testing of Preparations Against HIV Cell Culture
Complete medium additionally contains 20% fetal calf serum and 40 IU/ml of recombinant interleukin 2.
Lymphocytes isolated from fresh donor blood by means of Ficoll^R gradient centrifugation are cultured at 37° C. under 5% CO2 for 36 h in complete medium with addition of […] of phytohemagglutinin (Wellcome). After addition of 10% DMSO, the cells are frozen at a cell density of 5×10^6 and stored in liquid nitrogen. For the experiment, the cells are thawed, washed in RPMI medium and cultured in complete medium for 3-4 days.
The test preparations were dissolved in DMSO in a concentration of 16.7 mg/ml and diluted to 1 mg/ml in complete medium. 0.4 ml of medium was initially introduced into 24-well multiwell dishes. After addition of 0.1 ml of the dissolved preparation in the top row of the dish, a geometrical dilution series was produced by transfer of 0.1 ml in each case. Preparation-free controls always contained 0.4 ml of complete medium containing 0.5% DMSO. Lymphocyte cultures having a cell count of 5×10^5 cells/ml were infected by addition of 1/50 volumes of supernatant from HIV-infected lymphocyte cultures. The titer of these culture supernatants was determined by endpoint dilution with 1-5×10^6 infectious units/ml. After incubation at 37° C. for 30 min, the infected lymphocytes were removed by centrifugation and taken up again in the same volume of medium. 0.6 ml of this cell suspension in each case was added to all hollows of the test plate. The batches were incubated at 37° C. for 3 days.
The infected cell cultures were investigated under the microscope for the presence of giant cells, which indicate active virus replication in the culture. The lowest preparation concentration at which no giant cells occurred was determined as the inhibitory concentration against HIV. For the control, the supematants from the culture plates were determined for the presence of HIV antigen using an HIV antigen test according to the instructions of the manufacturer (Organon).

[2] = target: T1, HIV "Reverse Transcriptase" (Human immunodeficiency virus type 1 group M subtype B, UniProt P04585); assay: Inhibition of HIV reverse transcriptase, Scintillation Proximity Assay (SPA); assay type: biochemical; conditions: RT-SPA, 60 min, 37° C.; read-out: Reverse Transcriptase Assay IC-50 (converted)
T1 construct: purchased HT Biotechnology LTD, Cambridge, UK; host or cells: E. coli
Experimental: Investigation of the Substances for Inhibition of HIV "Reverse Transcriptase"
The activity of the reverse transcriptase (RT) was determined using a "Scintillation Proximity Assay" (SPA).
The reagent kit for the RT-SPA was obtained from Amersham/Buchler (Brunswick). The enzyme RT (from HIV cloned in E. coli) came from HT Biotechnology LTD, Cambridge, UK.
The test was carried out according to the method manual of the manufacturer Amersham--with the following modifications:
Bovine serum albumin was added to the assay buffer to a final concentration of 0.5 mg/ml.
The test was carried out in Eppendorf reaction vessels with a […] batch volume.
The RT concentrate of the manufacturer (5000 U/ml) was diluted to an activity of 15 U/ml in tris HCl buffer 20 mM; pH 7.2; 30% glycerol.
The incubation time for the batches was 60 min (37° C.).
After stopping the reaction and "development" with the bead suspension, 130 μl batches were transferred to 4.5 ml of tris HCl buffer, 10 mM; pH 7.4; 0.15 M NaCl and the tritium activity was measured in a β-counter.
For a preliminary test of the inhibitor activity, the substances were dissolved in DMSO (stock solution c=1 mg/ml) and tested in dilution in DMSO 10^-1, 10^-2, 10^-3 etc.
For the determination of IC50 values, the inhibitor stock solutions were further diluted in tris HCl buffer, 50 mM, pH 8 and tested in suitable concentrations.
From the graphic representation of RT activity versus Log Clnh., the concentration associated with a 50% enzyme inhibition was determined.

[3] = Hirsch, M. S. J. Infect. Dis. 157 (1988), 427-431; cited from earlier work

Row | Compound | MIC [1] | EC50 [1] | IC50 [2] | therapeutic breadth / toxicity [3]
1 | CCc1c(C(=O)OC(C)C)c2cc(Cl)ccc2[nH]c1=S [Compound 20, isopropyl 6-chloro-3-ethylquinoline-2(1H)-thione-4-carboxylate] | > 0.008 µg/mL | ~0.002 µg/mL (≈ 0.00646 µM) | 8 nM | 
2 | C=CCOC(=O)c1c(CC)c(=S)[nH]c2ccc(Cl)cc12 [Compound 71] | ~0.4 µg/mL (≈ 1.3 µM) | < 0.08 µg/mL | 1 nM | 
3 | CC(C)OC(=O)c1c(-c2ccccc2Cl)c(=S)[nH]c2ccccc12 [Compound 61] | ~0.08 µg/mL (≈ 0.224 µM) |  | 26 nM | 
4 | CCc1c(C(=O)OC2CCCC2)c2ccccc2[nH]c1=S [Compound 30] | ~0.2 µg/mL (≈ 0.664 µM) | ~0.04 µg/mL (≈ 0.133 µM) | 147 nM | 
5 | CCC(CC)OC(=O)c1c(-c2ccccc2)c(=S)[nH]c2ccc(Cl)cc12 [Compound 18] | > 0.2 µg/mL | ~0.08 µg/mL (≈ 0.207 µM) | 29 nM | 
6 | Cc1c(C(=O)OCC2CC2)c2cc(Cl)ccc2[nH]c1=S [Compound 43] |  |  | 26 nM | 
7 | Nc1ccn([C@H]2CC[C@@H](CO)O2)c(=O)n1 [DDC] |  |  |  | very narrow therapeutic breadth or by very severe toxicity which occurs even in the therapeutic range
8 | CCOC(=O)c1c(CC)c(=S)[nH]c2ccc(Cl)cc12 [Compound 67] |  |  | 1 nM | 
9 | CC(C)OC(=O)c1c(C(C)C)c(=S)[nH]c2ccccc12 [Compound 35] | > 0.04 µg/mL | > 0.008 µg/mL | 529 nM | 
10 | COC(=O)c1c(C)c(=S)[nH]c2ccc(Cl)cc12 [Compound 39] | > 0.2 µg/mL | 0.03 µg/mL (≈ 0.112 µM) |  | 
11 | CCCOC(=O)c1c(C)c(=S)[nH]c2ccc(Cl)cc12 [Compound 45] | < 0.2 µg/mL | ~0.04 µg/mL (≈ 0.135 µM) | 34 nM | 
12 | CCc1c(C(=O)OC(C)C)c2cc(Cl)ccc2[nH]c1=O [Compound 19, isopropyl 6-chloro-3-ethylquinolin-2(1H)-one-4-carboxylate] | ~0.2 µg/mL (≈ 0.681 µM) | ~0.02 µg/mL (≈ 0.0681 µM) | 94 nM | 
13 | Cc1c(C(=O)OC(C)C)c2cc(Cl)ccc2[nH]c1=S [Compound 41] | > 0.04 µg/mL | < 0.001 µg/mL |  | 
14 | O=c1[nH]cnc2c1ncn2[C@H]1CC[C@@H](CO)O1 [DDI] |  |  |  | very narrow therapeutic breadth or by very severe toxicity which occurs even in the therapeutic range
15 | Cc1c(C(=O)OCC2CC2)c2cc(Cl)ccc2[nH]c1=O [Compound 42] | > 0.2 µg/mL | ~0.1 µg/mL (≈ 0.343 µM) |  | 
16 | CCc1c(C(=O)OC2CCCCC2)c2cc(Cl)ccc2[nH]c1=S [Compound 70] | ~0.4 µg/mL (≈ 1.14 µM) | < 0.08 µg/mL | 8 nM | 
17 | Cc1c(C(=O)OC(C)C)c2cc(Cl)ccc2[nH]c1=O [Compound 40] | > 0.04 µg/mL | 0.015 µg/mL (≈ 0.0536 µM) | 608 nM | 
18 | CC(C)OC(=O)c1c(C(C)C)c(=O)[nH]c2ccccc12 [Compound 34] | > 0.2 µg/mL | ~0.1 µg/mL (≈ 0.366 µM) | 1520 nM | 
19 | CC(C)Cc1c(C(=O)OC(C)C)c2ccccc2[nH]c1=O [Compound 16] | > 0.04 µg/mL | 0.05 µg/mL (≈ 0.174 µM) | 372 nM | 
20 | CCc1c(C(=O)OC(C)C)c2ccccc2[nH]c1=S [Compound 5] | 0.2 µg/mL (≈ 0.726 µM) | 0.005 µg/mL (≈ 0.0182 µM) | 35 nM | 
21 | CC(C)OC(=O)c1c(-c2ccccc2)c(=S)[nH]c2ccc(Cl)cc12 [Compound 6] |  |  | 22 nM | 
22 | CC(C)OC(=O)c1c(-c2ccccc2)c(=S)[nH]c2ccc(F)cc12 [Compound 15] | > 0.04 µg/mL | ~0.02 µg/mL (≈ 0.0586 µM) | 21 nM | 
